Experimental data as given in ChEMBL document CHEMBL1124224, “Synthetic polyamine analogues as antineoplastics” (J Med Chem, 1988).
Values joined by “and” are separate entries in the source; they are usually repeats but may differ in a detail not shown here. Identical values can stand only once. Values belong to the compound of their own block, whether it stands above or below them.

Assays:
L1210 [1] = assay: Tested for inhibition of L1210 cell growth by the compound after 96 hr; type: functional, cell-based; conditions: Mus musculus, L1210, 96 h
L1210 [2] = assay: Tested for inhibition of L1210 cell growth by the compound at a dose of 30 uM and after 48 hr; type: functional; conditions: Mus musculus, L1210, 48 h
L1210 [3] = assay: Tested for inhibition of L1210 cell growth by the compound after 48 hr; type: functional, cell-based; conditions: Mus musculus, L1210, 48 h
L1210 [4] = assay: Tested for inhibition of L1210 cell growth by the compound at a dose of 50 uM and after 48 hr; type: functional; conditions: Mus musculus, L1210, 48 h
L1210 [5] = assay: Tested for L1210 cell growth as percent of control by the compound at a dose of 100 uM and after 48 hr; conditions: Mus musculus, L1210, 48 h
L1210 [6] = assay: Tested for inhibition of L1210 cell growth by the compound at a dose of 30 uM and after 96 hr; type: functional; conditions: Mus musculus, L1210, 96 h
L1210 [7] = assay: Tested for inhibition of L1210 cell growth by the compound at a dose of 25 uM and after 96 hr; No inhibition at 25 uM; type: functional, cell-based; conditions: Mus musculus
L1210 [8] = assay: Tested for inhibition of L1210 cell growth by the compound at a dose of 25 uM and after 48 hr; No inhibition at 25 uM; type: functional, cell-based; conditions: Mus musculus
L1210 [9] = assay: Tested for inhibition of L1210 cell growth by the compound at a dose of >12.5 uM and after 48 hr; conditions: Mus musculus
L1210 [10] = assay: Tested for inhibition of L1210 cell growth by the compound at a dose of >12.5 uM and after 96 hr; conditions: Mus musculus
L1210 [11] = assay: Tested for inhibition of L1210 cell growth by the compound at a dose of 50 uM and after 48 hr; No inhibition at 50 uM; type: functional, cell-based; conditions: Mus musculus
L1210 [12] = assay: Tested for inhibition of L1210 cell growth by the compound at a dose of 50 uM and after 96 hr; No inhibition at 50 uM; type: functional, cell-based; conditions: Mus musculus
Mus musculus [13] = assay: % increase in life span in mice was calculated at 15 mg/kg by ip administration; type: functional; conditions: route intraperitoneal
Mus musculus [14] = assay: Mean survival of mice with L1210 leukemia was evaluated on day 60 at 20 mg/kg by ip administration (schedule: Q8H,1-3days); type: functional; conditions: route intraperitoneal
Mus musculus [15] = species: Mus musculus; assay: Mean survival of mice with L1210 leukemia was evaluated on day 60 with no treatment; type: functional
HL-60 [16] = assay: Inhibitory concentration against growth of cultured HL-60 cells at 144 hrs.; type: functional, cell-based; conditions: Homo sapiens, HL-60, 144 h
[17] = Ratio of survivors to the total mice in the test group; 0/6; type: functional
Mus musculus [18] = assay: Mean survival of mice with 10e 5 L1210 cells was evaluated on day 60 at 15 mg/kg by ip administration (schedule: Q12H,1-6days); type: functional; conditions: route intraperitoneal
HL-60 [19] = assay: Inhibitory concentration against growth of cultured HL-60 cells at 72 hrs.; type: functional, cell-based; conditions: Homo sapiens, HL-60, 72 h
Mus musculus [20] = species: Mus musculus; assay: Ratio of survivors to the total mice in the test group; 0/13; type: functional
L1210 [21] = assay: Percent of clonogenic L1210 cells to relative to control was determined after the treatment with the compound of 10 uM was for 24 hr; type: functional, Mus musculus
[22] = Inhibitory concentration against growth of cultured […] cells at 144 hrs.; type: functional; conditions: Homo sapiens
[23] = Ratio of survivors to the total mice in the test group; 0/4; type: functional
L1210 [24] = assay: Percent of clonogenic L1210 cells to relative to control was determined after the treatment with the compound of 10 uM was for 48 hr; type: functional, Mus musculus
Mus musculus [25] = assay: Mean survival of mice with L1210 leukemia was evaluated on day 60 at 20 mg/kg by ip administration (schedule: Q8H,1-4days); type: functional; conditions: route intraperitoneal
[26] = Ratio of survivors to the total mice in the test group; 9/16; type: functional
Mus musculus [27] = assay: % increase in life span in L1210 leukemic mice was calculated at 15 mg/kg by ip administration; type: functional; conditions: route intraperitoneal
Mus musculus [28] = assay: Mean survival of mice with L1210 leukemia was evaluated on day 60 at 10 mg/kg by ip administration (schedule: Q8H,1-6days); type: functional; conditions: route intraperitoneal
L1210 [29] = assay: Percent of clonogenic L1210 cells to relative to control was determined after the treatment with the compound of 10 uM was for 72 hr; type: functional, Mus musculus
[30] = Ratio of survivors to the total mice in the test group; 4/8; type: functional
Mus musculus [31] = assay: Mean survival of mice with L1210 leukemia on day 60 at 5 mg/kg by ip administration (schedule: Q8H,1-6days); type: functional; conditions: route intraperitoneal
[32] = Ratio of survivors to the total mice in the test group; 0/8; type: functional
[33] = Ratio of survivors to the total mice in the test group; 0/47; type: functional
Mus musculus [34] = assay: % increase in life span in L1210 leukemic mice was calculated at 20 mg/kg by ip administration; type: functional; conditions: route intraperitoneal
[35] = Ratio of survivors to the total mice in the test group; 0/10; type: functional
[36] = Inhibitory concentration against growth of cultured […] cells at 72 hrs.; type: functional; conditions: Homo sapiens
Mus musculus [37] = assay: Mean survival of mice with L1210 leukemia was evaluated on day 60 at 17.5 mg/kg by ip administration (schedule: Q8H,1-6days); type: functional; conditions: route intraperitoneal
Mus musculus [38] = assay: % increase in life span in mice was calculated at 5 mg/kg by ip administration; type: functional; conditions: route intraperitoneal
Mus musculus [39] = assay: % increase in life span in L1210 leukemic mice was calculated at 10 mg/kg by ip administration; type: functional; conditions: route intraperitoneal
Mus musculus [40] = assay: Mean survival of L1210 leukemic mice was evaluated on day 60 at 15 mg/kg by ip administration (schedule: Q8H,1-6days); type: functional; conditions: route intraperitoneal
Mus musculus [41] = assay: % increase in life span in L1210 leukemic mice was calculated at 17.5 mg/kg by ip administration; type: functional; conditions: route intraperitoneal
L1210 [42] = assay: Percent of clonogenic L1210 cells to relative to control was determined after the treatment with the compound of 10 uM was for 96h; type: functional, Mus musculus

SMILES: CCCNCCCCNCCCNCCC
inhibition at 30 µM (L1210 [6]): 83% | inhibition at 30 µM (L1210 [2]): 88%

SMILES: CCN(CCCN)CCCCN(CC)CCCN
inhibition (L1210 [7]): No inhibition | inhibition (L1210 [8]): No inhibition

SMILES: CCNCCCCCCCCCCCCNCC
inhibition (L1210 [9]): No inhibition | inhibition (L1210 [10]): No inhibition

SMILES: CCNCCCN1CCN(CCCNCC)CC1
inhibition (L1210 [11]): No inhibition | inhibition (L1210 [12]): No inhibition

SMILES: CCNCCCNCCCCNCCCNCC [BIS(ETHYL)SPERMINE]
ILS at 15 mg/kg (Mus musculus [13]): 376% | Mean survival (Mus musculus [14]): 14 days | Mean survival (Mus musculus [15]): 9.7 days and 8.9 days | IC50 (L1210 [1]): 100 nM | IC50 (HL-60 [16]): 300 nM | S/T [17]: 0 | Mean survival (Mus musculus [18]): 14.9 days | IC50 (HL-60 [19]): 10000 nM | S/T (Mus musculus [20]): 0 | Clones (L1210 [21]): 100% | IC50 [22]: 500 nM | S/T [23]: 0 | Clones (L1210 [24]): 75% | Mean survival (Mus musculus [25]): 18.1 days | S/T [26]: 0.562 | ILS at 15 mg/kg (Mus musculus [27]): 55% | Mean survival (Mus musculus [28]): 35.3 days | Clones (L1210 [29]): 21% | S/T [30]: 0.5 | Mean survival (Mus musculus [31]): 12.3 days | IC50 (L1210 [3]): 10000 nM | S/T [32]: 0 | S/T [33]: 0 | ILS (Mus musculus [34]): 57% and 103% | S/T [35]: 0 | IC50 [36]: > 40000 nM | Mean survival (Mus musculus [37]): 52.3 days | ILS at 5 mg/kg (Mus musculus [38]): 25% | ILS at 10 mg/kg (Mus musculus [39]): 264% | Mean survival (Mus musculus [40]): 46.6 days | ILS at 17.5 mg/kg (Mus musculus [41]): 439% | Clones (L1210 [42]): 2%

Continued, in another order:

IC50 (L1210 [1]): 10000 nM
SMILES: CCNCCCCNCCCNCC
inhibition at 30 µM (L1210 [2]): 61%

IC50 (L1210 [1]): 500 nM | IC50 (L1210 [3]): 50000 nM
SMILES: CCNCCCNCCCNCCCCNCCCNCCCNCC

IC50 (L1210 [1]): 200 nM | IC50 (L1210 [3]): 3000 nM
SMILES: CCCNCCCNCCCCNCCCNCCC

IC50 (L1210 [1]): 5000 nM
SMILES: CCN(CC)CCCNCCCCNCCCN(CC)CC
inhibition at 50 µM (L1210 [4]): 80%

IC50 (L1210 [1]): 3000 nM | IC50 (L1210 [3]): 100000 nM
SMILES: CCNCCCN(CC)CCCCN(CC)CCCNCC

IC50 (L1210 [1]): 750 nM
SMILES: CNCCCNCCCCNCCCNC
control growth at 100 µM (L1210 [5]): 60%
